According to BindingDB's records for doi:10.1021/jm0603668 (Merck Frosst Canada, 2007):

Test: Activity at human TP receptor in platelet rich plasma assessed as inhibition […]-induced platelet aggregation

| IC50 [nM] | SMILES |
| --- | --- |
| 1400 | CC(=O)c1cc(F)cc2c3c(n(Cc4ccc(Cl)cc4)c12)[C@@H](CC(=O)O)CC3 [[(3R)-4-(4-chlorobenzyl)-7-fluoro-5-acetyl-1,2,3,4-tetrahydrocyclopenta-[b]indol-3-yl]acetic acid] |
| 80 | O=C(O)C[C@H]1CCc2c1n(Cc1ccc(Cl)cc1)c1c(Br)cc(F)cc21 [[(3R)-5-bromo-4-(4-chlorobenzyl)-7-fluoro-1,2,3,4-tetrahydrocyclopenta[b]indol-3-yl]acetic acid] |
